BindingDB's records for doi:10.1021/jm050205o (Abbott Laboratories, 2005)

Target: T1, Glucocorticoid receptor (Homo sapiens, UniProt P04150)
T1 sequence (P04150 whole entry): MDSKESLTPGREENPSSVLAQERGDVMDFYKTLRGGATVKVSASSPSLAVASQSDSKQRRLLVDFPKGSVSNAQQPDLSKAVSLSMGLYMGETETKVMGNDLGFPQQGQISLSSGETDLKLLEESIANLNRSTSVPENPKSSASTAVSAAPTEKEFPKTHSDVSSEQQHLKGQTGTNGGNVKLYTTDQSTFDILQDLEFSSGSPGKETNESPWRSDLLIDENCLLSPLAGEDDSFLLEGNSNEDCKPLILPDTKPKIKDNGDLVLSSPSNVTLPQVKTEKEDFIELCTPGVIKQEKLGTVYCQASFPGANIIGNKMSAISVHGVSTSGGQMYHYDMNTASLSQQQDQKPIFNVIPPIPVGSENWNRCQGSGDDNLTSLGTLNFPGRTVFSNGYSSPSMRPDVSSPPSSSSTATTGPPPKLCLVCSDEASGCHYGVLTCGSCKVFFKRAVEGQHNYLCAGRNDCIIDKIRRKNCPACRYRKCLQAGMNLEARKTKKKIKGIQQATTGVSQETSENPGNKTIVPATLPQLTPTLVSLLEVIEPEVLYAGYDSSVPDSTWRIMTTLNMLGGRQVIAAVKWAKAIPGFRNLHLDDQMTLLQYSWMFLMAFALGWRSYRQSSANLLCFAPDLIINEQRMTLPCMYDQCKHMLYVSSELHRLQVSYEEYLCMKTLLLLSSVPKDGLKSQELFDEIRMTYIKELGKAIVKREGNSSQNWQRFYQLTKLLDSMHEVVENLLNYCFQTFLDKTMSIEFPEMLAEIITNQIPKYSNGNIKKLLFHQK
Experiment: GR Binding Assay and GRAF Assay
Settings: pH 8; 4 °C

SMILES | IC50 [µM]
Cc1c(NS(C)(=O)=O)cccc1N(Cc1ccc(Oc2ccc(Br)c(OCC(=O)O)c2)cc1)Cc1ccc(F)cc1F [2-{2-bromo-5-[4-({[(2,4-difluorophenyl)methyl](3-methanesulfonamido-2-methylphenyl)amino}methyl)phenoxy]phenoxy}acetic acid] | 0.33
Cc1c(NS(C)(=O)=O)cccc1N(Cc1ccc(Oc2ccc(Cl)c(OCC(=O)O)c2)cc1)Cc1ccc(F)cc1F [2-{2-chloro-5-[4-({[(2,4-difluorophenyl)methyl](3-methanesulfonamido-2-methylphenyl)amino}methyl)phenoxy]phenoxy}acetic acid] | 0.5
Cc1c(NS(C)(=O)=O)cccc1N(Cc1ccc(Oc2ccc(F)c(OCC(=O)O)c2)cc1)Cc1ccc(F)cc1F [2-{5-[4-({[(2,4-difluorophenyl)methyl](3-methanesulfonamido-2-methylphenyl)amino}methyl)phenoxy]-2-fluorophenoxy}acetic acid] | 0.44
CC#C[C@]1(O)CC[C@H]2[C@@H]3CCC4=CC(=O)CC[C@]4(Cc4ccc(C)cc4)C3=CC[C@@]21C [(2R,10S,11S,14S,15S)-14-hydroxy-15-methyl-2-[(4-methylphenyl)methyl]-14-(prop-1-yn-1-yl)tetracyclo[8.7.0.0^{2,7}.0^{11,15}]heptadeca-1(17),6-dien-5-one] | 0.043
